Measurements reported in ChEMBL document CHEMBL5532708, “Tetrahydroxanthene-1,3(2H)-diones and Oxidized Hexadiene Derivatives from Uvaria leptopoda and Their Biological Activities” (J Nat Prod, 2024).
pIC50: −log10 of the molar value. ≈ marks a conversion by molar mass, not a printed value.

Key:
[1] = Cytotoxicity against human Lu1 cells assessed as inhibition of cell growth incubated for 72 hrs by SRB assay; assay type: functional, cell-based; details: Lu1, 72 h
Plasmodium falciparum = assay: Antiplasmodial activity against multidrug resistant Plasmodium falciparum K1 assessed as reduction in parasite growth by [3H]-hypoxanthine incorporation assay; assay type: functional, organism-based
RAW264.7 [2] = assay: Antiinflammatory activity in mouse RAW264.7 cells assessed as inhibition of LPS-induced NO production incubated for 24 hrs by Griess reagent based analysis; assay type: functional, cell-based; details: RAW264.7, 24 h
[3] = Cytotoxicity against mouse RAW264.7 cells assessed as cell viability at 15 uM incubated for 24 hrs by MTT assay relative to control; assay type: toxicity, cell-based; details: read-out: Activity
SNU1 = assay: Cytotoxicity against human SNU1 cells assessed as reduction in cell viability incubated for 24 hrs by MTT assay; assay type: functional, cell-based; details: SNU1, 24 h
RAW264.7 [4] = assay: Antiinflammatory activity in mouse RAW264.7 cells assessed as inhibition of LPS-induced NO production at 15 uM incubated for 24 hrs by Griess reagent based analysis relative to control; assay type: functional; set-up: scale not given: the % may be the effect or the level left
KB = assay: Cytotoxicity against human KB cells by SRB assay; assay type: functional, cell-based

SMILES	viability at 24 h, 15 µM [3] [%]	pIC50 (SNU1)	Activity (RAW264.7 [4]) [%]	further results
CC(C)[C@@H](C)/C=C/[C@@H](C)[C@H]1CCC2=C3C=CC4=CC(=O)CC[C@]4(C)[C@H]3CC[C@@]21C	–	–	–	IC50 [1]: 10.2 µg/mL (≈ 26 µM)
COc1cc(OC)c([C@@H]2Oc3c(OC)c(OC)cc(OC)c3[C@@H](/C=C/c3ccccc3)[C@H]2C(=O)c2ccccc2)c(O)c1OC	–	–	–	IC50 (Plasmodium falciparum): 3.02 µg/mL (≈ 4.93 µM)
O=C(O)Cc1ccccc1Nc1c(Cl)cccc1Cl [DICLOFENAC SODIUM]	–	–	–	pIC50 (RAW264.7 [2]): 3.48
COc1ccc2c(c1)C[C@]1(OC)C(=O)/C(=C(/O)[C@H]3[C@H](c4ccccc4)[C@H](/C(O)=C4/C(=O)C[C@@]5(OC)Oc6ccc(OC)cc6C[C@@]5(OC)C4=O)[C@H]3c3ccccc3)C(=O)C[C@]1(OC)O2	> 90	4.74	6.5	–
CC(=O)OC[C@@](O)(COC(=O)c1ccccc1)[C@@H](O)/C=C\COC(=O)c1ccccc1	> 90	4.09	14	–
COc1ccc2c(c1)C[C@H]1[C@@H](OC(=O)c3ccccc3)[C@H](OC(C)=O)C(COC(=O)c3ccccc3)=C[C@H]1O2	> 90	3.89	15	–
CC(=O)OC[C@@]1(COC(=O)c2ccccc2)O[C@H]1/C=C\COC(=O)c1ccccc1	> 90	4.43	12	–
COc1cc(OC)c(C(=O)/C=C/c2ccccc2)c(O)c1OC	> 90	4.96	-11	–
COc1cc2cc(-c3ccc(O)cc3)ccc2cc1O	–	–	–	pIC50 (KB): 5.30
O=C1c2cc(O)ccc2-c2c3c(cc4ccnc1c24)OCO3	–	–	–	IC50 [1]: 9.22 µg/mL (≈ 31.7 µM)
COc1ccc2c(c1)C[C@]1(OC)C(=O)/C(=C(O)\C=C\c3ccccc3)C(=O)C[C@]1(OC)O2 (racemic)	> 90	4.47	73	pIC50 (RAW264.7 [2]): 5.17
